For assay [1], the target named is T1, HA-UCHL1 (Homo sapiens, UniProt P09936).
T1 sequence (P09936 1-223): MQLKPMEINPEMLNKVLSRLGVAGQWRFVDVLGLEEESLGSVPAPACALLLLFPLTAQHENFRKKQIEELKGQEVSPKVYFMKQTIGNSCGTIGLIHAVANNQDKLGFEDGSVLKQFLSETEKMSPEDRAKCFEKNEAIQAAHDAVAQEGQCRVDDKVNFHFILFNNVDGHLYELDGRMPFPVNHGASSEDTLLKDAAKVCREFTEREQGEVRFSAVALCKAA
The assay is described as follows: AlphaLISA DUB assay miniaturized to 1536-well format. Type of assay: biochemical. In general terms: Bead proximity is the source of the signal in Alpha formats.

The target in assay [2] is T2, UCHL1 (Homo sapiens, UniProt P09936).
T2 sequence (P09936 1-223): T1 sequence (P09936 1-223)
The assay is described as follows: Rapid dilution reversibility assay. Type of assay: biochemical. The following applies: incubated at ten times IC50, diluted 100-fold; normalized to DMSO.

Assay [3] deals with T3, USP2 catalytic core (Homo sapiens, UniProt O75604).
T3 sequence (O75604 267-599 limits assumed): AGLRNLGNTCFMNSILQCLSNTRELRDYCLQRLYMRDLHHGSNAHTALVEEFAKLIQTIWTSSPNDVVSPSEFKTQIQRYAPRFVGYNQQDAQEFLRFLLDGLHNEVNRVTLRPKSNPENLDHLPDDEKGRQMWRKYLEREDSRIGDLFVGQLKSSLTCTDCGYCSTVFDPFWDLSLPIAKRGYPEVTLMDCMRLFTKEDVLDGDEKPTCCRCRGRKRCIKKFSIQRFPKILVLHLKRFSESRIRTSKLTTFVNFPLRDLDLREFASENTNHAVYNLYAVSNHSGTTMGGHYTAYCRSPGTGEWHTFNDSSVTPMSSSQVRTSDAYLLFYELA
In words: Ub-AMC selectivity assay, USP2 catalytic core. Type of assay: biochemical. The note with it: 114 μM.

For assay [4], the target named is T4, UCHL3 (Homo sapiens, UniProt P15374).
T4 sequence (P15374 1-230): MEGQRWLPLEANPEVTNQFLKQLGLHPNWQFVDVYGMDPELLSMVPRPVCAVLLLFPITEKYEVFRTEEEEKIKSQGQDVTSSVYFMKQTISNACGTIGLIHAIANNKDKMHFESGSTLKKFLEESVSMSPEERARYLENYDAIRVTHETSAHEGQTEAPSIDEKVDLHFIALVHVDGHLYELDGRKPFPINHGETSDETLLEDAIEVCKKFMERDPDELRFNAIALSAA
The assay is described as follows: Ub-AMC selectivity assay, UCHL3. In kind it is biochemical. The note with it: 114 μM.

Assay [5] has as its target T5, UCHL5 (Homo sapiens, UniProt Q9Y5K5).
T5 sequence (Q9Y5K5 1-329): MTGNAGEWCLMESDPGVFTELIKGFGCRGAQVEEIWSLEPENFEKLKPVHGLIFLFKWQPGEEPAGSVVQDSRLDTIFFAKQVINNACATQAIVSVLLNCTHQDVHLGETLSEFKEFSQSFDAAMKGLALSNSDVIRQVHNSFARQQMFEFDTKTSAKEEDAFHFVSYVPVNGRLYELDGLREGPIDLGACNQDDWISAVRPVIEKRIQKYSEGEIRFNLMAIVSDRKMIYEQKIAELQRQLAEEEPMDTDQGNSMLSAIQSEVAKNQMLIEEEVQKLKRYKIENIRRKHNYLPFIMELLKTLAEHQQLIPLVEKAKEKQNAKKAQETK
The assay is described as follows: Ub-AMC selectivity assay, UCHL5. The note with it: 114 μM. Type of assay: biochemical.

Assay [6] deals with T6, full length USP15 (Homo sapiens, UniProt Q9Y4E8).
T6 sequence (Q9Y4E8 1-981): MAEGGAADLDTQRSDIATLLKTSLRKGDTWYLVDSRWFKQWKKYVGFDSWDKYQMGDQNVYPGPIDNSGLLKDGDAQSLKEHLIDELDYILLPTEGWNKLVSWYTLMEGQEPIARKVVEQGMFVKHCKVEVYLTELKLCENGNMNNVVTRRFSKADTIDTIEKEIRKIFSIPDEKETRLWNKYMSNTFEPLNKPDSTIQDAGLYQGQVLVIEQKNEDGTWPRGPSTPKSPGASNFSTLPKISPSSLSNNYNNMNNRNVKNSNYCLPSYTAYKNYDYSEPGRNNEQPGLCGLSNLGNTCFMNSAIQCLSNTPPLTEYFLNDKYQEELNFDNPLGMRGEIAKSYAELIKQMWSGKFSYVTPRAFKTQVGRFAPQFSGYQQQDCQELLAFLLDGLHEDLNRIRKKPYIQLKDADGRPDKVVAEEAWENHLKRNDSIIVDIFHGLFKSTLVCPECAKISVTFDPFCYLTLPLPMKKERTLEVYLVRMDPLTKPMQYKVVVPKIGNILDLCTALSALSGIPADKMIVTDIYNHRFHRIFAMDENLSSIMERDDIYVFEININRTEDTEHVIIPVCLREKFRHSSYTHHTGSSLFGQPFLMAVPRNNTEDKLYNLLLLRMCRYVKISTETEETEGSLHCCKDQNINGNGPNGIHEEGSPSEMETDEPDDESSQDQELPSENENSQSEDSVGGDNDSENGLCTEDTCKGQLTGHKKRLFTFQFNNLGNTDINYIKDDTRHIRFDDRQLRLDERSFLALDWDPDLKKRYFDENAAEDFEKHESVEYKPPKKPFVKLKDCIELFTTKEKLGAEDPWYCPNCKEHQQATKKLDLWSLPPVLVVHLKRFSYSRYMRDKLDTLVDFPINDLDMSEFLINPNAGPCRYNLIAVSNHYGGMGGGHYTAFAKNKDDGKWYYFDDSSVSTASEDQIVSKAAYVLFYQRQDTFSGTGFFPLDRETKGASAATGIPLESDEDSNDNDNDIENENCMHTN
In words: Ub-AMC selectivity assay, full length USP15. In kind it is biochemical. The note with it: 114 μM.

Assay [7] addresses T2, UCHL1. In words: Ub-AMC assay with recombinant UCHL1. In kind it is biochemical. The following applies: for difference in IC50 value (selectivity for UCHL1): versus UCHL3, UCHL5, USP2 catalytic core.
Assay [8] concerns UCHL1. The note with it: cited from earlier work.
Assay [9] has as its target T1, HA-UCHL1. The following applies: HEK293T cell lysates; Western blot, anti-HA.
Assay [10] deals with T1, HA-UCHL1. The assay is described as follows: Cell lysate AlphaLISA DUB assay, 384-well format. Type of assay: biochemical. The note with it: 384-well plate format; dose-response.
Assay [11] deals with T7, endogenous UCHL1 (Homo sapiens, UniProt P09936).
T7 sequence (P09936 1-223): T1 sequence (P09936 1-223)
Type of assay: biochemical. The following applies: 100 μM and 20 μM of compound; HEK293T cell lysates.

The values that follow come from paper PMC5947317 (ACS chemical biology, 2017).

Where two headings read alike, the source gives them in different places. A value given as a limit tells only on which side of the number the result lay.

As usually defined, the IC50 is the concentration that gives 50% inhibition. Turning to `COC(=O)C1=CO[C@@H](C)[C@@H]2CN3CCc4c([nH]c5ccc(OC)cc45)[C@@H]3C[C@H]12` [(-)-aricine], the half-inhibitory concentration (IC50) in [1] (read-out: IC50 determined in the qHTS, qHTS, data not shown) worked out at 38.5 µM; in [7] (Ub-AMC as substrate), 47.7 µM. The “recovered UCHL1 activity after rapid dilution” value (“recovered UCHL1 activity” below) in assay [2] was > 80%. The “inhibition at highest inhibitor concentration” value in assay [3], in assay [4], in [5] and in [6] was “no significant inhibition” each time.

As for `Cc1cnc(-c2ccccc2C(C)C)nc1NCc1ccc(-n2ccnn2)cc1` [ML323], the “activity against UCHL1” value in assay [8] is “inactive”. In addition, the “inhibition of UCHL1 labeling by biotin-UbVMe” value in assay [9] is listed as “did not inhibit the labeling”. Moreover, the “inhibition in the AlphaLISA assay” value in assay [10] is “no obvious inhibition”.

For `CCN1C(=O)C=CC1=O` [NEM, N-ethylmaleimide, reference compound], in [2], the “recovered UCHL1 activity” value is 3.9%.

On to `CC(=O)Oc1c2c(c(CC=C(C)C)c3c1C(=O)C1=C[C@@H]4CC5C(C)(C)OC(C/C=C(\C)C(=O)O)(C4=O)[C@@]15O3)OC(C)(CCC=C(C)C)C=C2` (some centres unmarked) [acetyl isogambogic acid], for which, in assay [1], half-maximal inhibition (IC50) required 30.6 µM. The “recovered UCHL1 activity” value in assay [2] was > 80%. Also, the “inhibition of endogenous UCHL1 labeling by HA-UbVMe” value (from here on “inhibition … by HA-UbVMe”) in assay [11] is given as “stronger inhibition”. Also, the “selectivity among UCHs and USPs tested” value in assay [7] (UCHL1 versus UCHL3, UCHL5, USP2 catalytic core, USP15, Ub-AMC) is “more promiscuous inhibitors”.

The molecule `CC1=C(O)C(=O)C=C2C1=CC=C1[C@@]2(C)CC[C@@]2(C)[C@@H]3C[C@](C)(C(=O)O)CC[C@]3(C)CC[C@]12C` [celastrol] yielded an IC50 in [1] of 4.46 µM. Further, the “recovered UCHL1 activity” value in assay [2] was > 80%. The “inhibition … by HA-UbVMe” value in assay [11] is recorded as “stronger inhibition”. In addition, the “difference in IC50 value (selectivity for UCHL1)” value in [7] (USP15, Ub-AMC) is ≥ 4 fold.

For `O=c1c2cc(O)c(O)cc2oc2cc(O)c([C@@H]3O[C@H](CO)[C@@H](O)[C@H](O)[C@H]3O)c(O)c12` [mangiferin], the IC50 in assay [1] came to 1.12 µM; in [7], 8.9 µM. Also, the “recovered UCHL1 activity” value in [2] is > 80%. Besides, the “inhibition … by HA-UbVMe” value in assay [11] is given as “stronger inhibition”. Also, in assay [7] (USP15, Ub-AMC), the “difference in IC50 value (selectivity for UCHL1)” value is listed as ≥ 4 fold.

For the molecule `CO[C@H]1/C=C/O[C@@]2(C)Oc3c(C)c(O)c4c(O)c(c(/C=N/N5CCN(C)CC5)c(O)c4c3C2=O)NC(=O)/C(C)=C\C=C\[C@H](C)[C@H](O)[C@@H](C)[C@@H](O)[C@@H](C)[C@H](OC(C)=O)[C@@H]1C` [rifampicin, reference compound], the figures for the IC50 in [1] and in assay [7] were 38.5 µM and 19.5 µM, respectively.
